One may read the viability as a read-out of living cells in per cent, often relative to untreated cells.

This series can be described thus: in vitro. As to conditions: human, hela cells, % viability.

As to `O=c1[nH]cc(CN2CCCN(S(=O)(=O)c3ccc(C(F)(F)F)cc3Cl)CC2)c(=O)[nH]1` [CBK062975], the viability at 28.5 h, 10 µM is 106%.
Still for that read-out and setting: then `CN(C)CCN(C)S(=O)(=O)c1ccc(C(C)(C)C)cc1` [CBK059035T], with 94.7%; and `Cc1nc2nc(-c3ccc(Cl)s3)cn2nc1C` [CBK284565], with 103%.
For the compound `COc1ccc(N2CCN(c3nc(OC)nc(OC)n3)CC2)cc1` [CBK264245], the viability at 28.5 h, 10 µM was determined as 100%.
Still for that read-out and setting: then `Cc1ccc(-c2nc(C)sc2CC(=O)N(C)CCN(C)C)cc1` [CBK282175], with 112%; and `Cc1c(C)n(Cc2ccccc2)c2ccc(C(=O)OCCCN(C)C)cc12` [CBK087693], with 91.7%.
As for `O=C(NCc1ccccn1)Nc1cccc(Cl)c1` [CBK058569], the viability at 28.5 h, 10 µM was determined as 95.9%.
Same read-out and setting: then `CC(=O)Nc1ccc(S(=O)(=O)NC2(C(F)(F)F)N=C(c3ccccc3)NC2=O)cc1` (centres unmarked) [CBK267932], with 113%; and `O=C1NC(=O)C(CCCCN2CCCC3(CCN(C(=O)Cc4c[nH]c5ccccc45)C3)C2)N1` (centres unmarked) [CBK132059], with 83.8%.
Same read-out and setting: in the case of `CC(=O)Nc1cccc(C(=O)N2CCOC(CCc3ccccc3)C2)c1` (centres unmarked) [CBK304629] it was 88.7%; in that of `CC(C)(C)OC(=O)N1CCN(c2cc(N)ncn2)CC1` [CBK001963], 101%; in that of `N#CC(CCCN1CCN(c2ccccc2)CC1)(c1ccccc1)c1ccccc1` [CBK002243C], 96.8%.
On to `CC(=O)c1csc(NC(=O)Cn2ccc3ccc(F)cc32)n1` [CBK282572], for which the viability at 28.5 h, 10 µM is 90.5%.
The same measure, in the same setting: in the case of `Cc1ccc(C(=O)C2=C(O)C(=O)N(CCCn3ccnc3)C2c2cccc([N+](=O)[O-])c2)cc1` (centres unmarked) [CBK263319] it was 115%; in that of `CC(=O)Oc1cc(C)cc(C#N)c1` [CBK038296], 87.6%.
For `CC(NC(=O)CCc1cnn(C)c1)c1cccc(-n2ccnc2)c1` (centres unmarked) [CBK306139], the viability at 28.5 h, 10 µM came out at 97.3%.
Still for that read-out and setting: in the case of `N#CCCCN1CCC(Oc2nccnc2OCc2cccc3ccccc23)CC1` [CBK161571] it was 99.3%; in that of `O=c1[nH]c(=O)c2cc(S(=O)(=O)NCC3(c4ccccc4)CCCC3)ccc2[nH]1` [CBK286387], 112%.
The same measure, in the same setting: then `O=C(c1ccc(-c2cncc(-c3ccc(O)cc3)n2)cc1Cl)N1CCOCC1` [CBK123790], with 94%; and `Cc1nc(CNCc2c(C)nn(C)c2N2CCOCC2)cs1` [CBK305753], with 83.7%.
On the same count and under the same terms, in the case of `N#Cc1ccsc1NC(=O)CN1CCN(c2cccc(Cl)c2)CC1` [CBK306192] it was 81.1%; in that of `CCc1nnc(NS(=O)(=O)c2ccc(OC(F)(F)F)cc2)s1` [CBK026672], 91.7%; in that of `O=C(NC(Cc1ccccc1)C(=O)O)c1ccc(Cl)cc1` (centres unmarked) [CBK264677], 96.1%.
Take `COC(=O)c1ccc(NC(=O)c2ccc(-n3cccn3)cc2)cc1` [CBK269486]: the viability at 28.5 h, 10 µM worked out at 90.7%.
Still for that read-out and setting: then `CC(C)NC(=O)N1CCN(Cc2nc(-c3ccoc3)no2)CC1` [CBK306248], with 88.2%.
As to `CC1=NN(c2ccccc2)C(=O)C1C(=O)c1ccc(Br)cc1` (centres unmarked) [CBK067771], the viability at 28.5 h, 10 µM is 98.1%.
Still for that read-out and setting: then `Cc1ccc(CN(CCCN(C)C)Cc2nccn2C)o1` [CBK282481], with 105%; and `COc1ccccc1NS(=O)(=O)c1ccc(N2CCN3CCCC3C2)c(N)c1` (centres unmarked) [CBK001266], with 92.6%; and `NC12CC(=O)CC(CC(c3ccccc3)C1)C2` (centres unmarked) [CBK010323C], with 114%.
Same read-out and setting: then `CC(=O)N1CCOC(CNc2nc(C(C)(C)C)nc3c2cnn3C)C1` (centres unmarked) [CBK307469], with 89.4%; and `COc1ccc(-c2ccc(OCCNC(=O)c3cccc(F)c3)nn2)cc1` [CBK294428], with 87.1%.
Still for that read-out and setting: then `CC(C)N(C(=O)Cn1c(C(F)F)cc2cccnc21)C(C)C` [CBK285009], with 100%; and `CN1C(=O)CC2(C1=O)C(=O)N(Cc1ccccc1)c1ccc(F)cc12` (centres unmarked) [CBK075163], with 90.5%.
Consider `O=C(Cn1ccc2ccc(F)cc21)Nc1cccc(-n2cnnc2)c1` [CBK282570], for which the viability at 28.5 h, 10 µM came out at 111%.
Same read-out and setting: then `Cc1n[nH]cc1-c1nsc(Nc2ccccc2)n1` [CBK113680], with 92.2%; and `Cc1nn(CC(=O)N2CCCCC2C)c(=O)c2cc3occc3n12` (centres unmarked) [CBK283622], with 76.7%; and `CC(C)(C)c1cc(NC(=O)CSc2ccc(S(=O)(=O)N3CCCC3)cn2)n(-c2ccccc2)n1` [CBK297099], with 89%.
As for `O=C1NC(=S)N(Cc2ccco2)C(=O)/C1=C\c1ccc(-c2ccc(Cl)c(C(=O)O)c2)o1` [CBK265584], the viability at 28.5 h, 10 µM (bulk resorufin, single well) was 90.1%.
Turning to `Cn1cc(C2CCCCCN2C(=O)c2cccc(F)c2)cn1` (centres unmarked) [CBK284970], the viability at 28.5 h, 10 µM is 102%.
The same measure, in the same setting: in the case of `CC(C)c1cc(C(=O)N(CCO)CC2CC3C=CC2C3)n(C)n1` (centres unmarked) [CBK282164] it was 84.6%; in that of `N[C@@H]1CCCN(C(=O)C2CC2)[C@H]1c1ccccc1F` [CBK281563], 97%.
Same read-out and setting: then `O=C(Nc1ccc2[nH]ccc2c1)c1c(F)cccc1F` [CBK144711], with 95.9%; and `CS(=O)(=O)N1CCc2cc(-c3csc(C4CC4)n3)ccc21` [CBK306347], with 70.5%.
The same measure, in the same setting: in the case of `O=C(Nc1nnc(-c2ccco2)o1)C(c1ccccc1)c1ccccc1` [CBK287424] it was 91.9%; in that of `Cn1c(C(=O)NCc2ccccc2)cc2ccccc21` [CBK200195], 81.7%; in that of `COCC(=O)N1CCc2sccc2C1c1ccc(NCc2ccc(F)cc2)cc1` (centres unmarked) [CBK286445], 89.7%.
With `NNC(=O)C(Oc1ccccc1)Oc1ccccc1` [CBK261210], the viability at 28.5 h, 10 µM amounted to 100%.
Same read-out and setting: in the case of `CN1CCN(Cc2c(C3CCCC3)[nH]c3ncccc23)CC1` [CBK285336] it was 88.6%.
Still for that read-out and setting: then `CCOC(=O)C1(NC(=O)C2(Oc3cccnc3C)CCNCC2)CCC1` [CBK306688], with 89.9%; and `COc1ccc(Oc2nccnc2N2CCN(CCc3ccccn3)CC2)cc1OC` [CBK083067T], with 93.2%; and `CC1CCN(c2ccc(C(=O)CCCO)cc2)CC1` [CBK010358], with 91.8%.
Regarding `O=C(O)c1cc(-c2cccnc2)nc2ccccc12` [CBK262141K], the viability at 28.5 h, 10 µM was found to be 103%.
Still for that read-out and setting: in the case of `O=C(CSc1n[nH]c(=O)[nH]c1=O)N/N=C/c1ccc(O)cc1` [CBK263488] it was 95.4%.
Same read-out and setting: in the case of `O=C(c1cccnc1)C1CCN(C(=O)Cc2ccccc2F)CC1` [CBK283814] it was 87.5%; in that of `COc1ccc(N2CCN(C(=O)CCC(F)(F)F)CC2)cc1` [CBK091419], 100%.
On the same count and under the same terms, in the case of `O=CN1CCc2c([nH]c3ccccc23)C12CCCN(Cc1ccc(C(F)(F)F)cc1)C2` (centres unmarked) [CBK039587] it was 92.6%; in that of `CN(C)c1cccc(-c2cncc(NCCCN3CCOCC3)n2)c1` [CBK065635], 94.8%.
Take `COc1cnc(-c2ccc(Cl)cc2Cl)c(NC(=O)Cc2ccccc2)n1` [CBK145398]: the viability at 28.5 h, 10 µM turned out to be 92.8%.
Still for that read-out and setting: in the case of `Cc1ccc2oc(-c3ccc(C)c(NC(=O)c4cc([N+](=O)[O-])ccc4Cl)c3)nc2c1` [CBK263055] it was 94.5%.
On the same count and under the same terms, then `O=C(O)c1ccc(NS(=O)(=O)Cc2ccccc2[N+](=O)[O-])cc1` [CBK034054], with 90.4%.
The same measure, in the same setting: then `COc1cc(C2=NS(=O)(=O)NC3=C2CCCC3)cc(OC)c1OC` [CBK010423], with 90.3%; and `CN(C)CCNc1ccc(-c2nnc(O)c3ccccc23)cc1[N+](=O)[O-]` [CBK266143], with 111%; and `O=C(CN1CCCCC1CN1CCOCC1)NCc1ccccn1` (centres unmarked) [CBK304375], with 115%.
Turning to `O=C(O)c1cc(NCc2cccc(F)c2F)n[nH]1` [CBK287006], the viability at 28.5 h, 10 µM stood at 93.4%.
On the same count and under the same terms, in the case of `O=C(COc1ccc(S(=O)(=O)N2CCCCC2)cc1Cl)Nc1ccc2c(c1)OCCO2` [CBK269540] it was 97%; in that of `Cc1[nH]c2ccc(F)cc2c1-c1cn2c3c(nnc2n1)CCCC3` [CBK283172], 92.3%; in that of `COCCNC(=O)N1CCN(Cc2ccccn2)CC1` [CBK304817], 110%.
For `CCn1cc(C(=O)O)c(=O)c2cnc(N3CCN(C(=S)NC(=O)c4c(-c5ccccc5)noc4C)CC3)nc21` [CBK267491], the viability at 28.5 h, 10 µM came to 85%.
Same read-out and setting: then `COC(=O)C1CCCN1C(=O)C1(Oc2ccc(C)cc2)CCNCC1` (centres unmarked) [CBK306655], with 96.5%.
Still for that read-out and setting: then `COc1ccc2oc(-c3ccccc3)c(C(=O)Nc3nccs3)c2c1` [CBK287767], with 71.8%; and `CCN(CC)C(=O)N1CCC(c2ccncc2)CC1` [CBK283503], with 101%.
The same measure, in the same setting: then `Cc1ccc(SC(C)C(=O)O/N=C(\N)c2ccccn2)cc1` (centres unmarked) [CBK268567], with 111%; and `O=C(N/N=C/c1cccnc1)C1CCCN(S(=O)(=O)c2ccccc2)C1` (centres unmarked) [CBK262712], with 91.5%.
On to `Cc1nnc(SCC(=O)Nc2nonc2C)s1` [CBK269227], for which the viability at 28.5 h, 10 µM is 98.9%.
On the same count and under the same terms, then `COc1ccccc1C(=O)NCC(=O)N/N=C/c1ccc(N(C)C)cc1` [CBK261989], with 104%.
In the case of `COc1ccc(Br)cc1/C=C/C(=O)NC(=S)Nc1cc(C(=O)O)ccc1Cl` [CBK265564], the viability at 28.5 h, 10 µM was determined as 90.7%.
Same read-out and setting: then `O=C(O)C1CCN(c2cncc(-c3ccc(F)cc3F)n2)CC1` [CBK065899], with 95.2%; and `CN1CCN(c2cccc(-c3cc4ccccc4s3)n2)CC1` [CBK037019], with 102%; and `Cc1cc(NC(=O)c2ccccc2O)n(C)n1` [CBK000190], with 107%.
The same measure, in the same setting: then `CC(Nc1ccc2[nH]c(=O)[nH]c2c1)C(=O)N1CCN(c2ccccc2)CC1` (centres unmarked) [CBK296748], with 99.4%.

For the origin of these results see publication PMC12040169 (PLOS Biology, 2025).
